The values below come from paper PMC12040169 (PLOS Biology, 2025).

Molecules are shown by their SMILES.

A short description of this data set: in vitro. To be noted: human, hela cells, % viability.

As a reminder, the viability is a read-out of living cells in per cent, often relative to untreated cells. For the compound `COc1ccc(CCN(C)C(=O)CCCc2cc3ccccc3[nH]2)cc1OC` [CBK051152], the viability at 28.5 h, 10 µM turned out to be 93.7%.

For the compound `COc1ccc([C@@]23CC[C@@H](NC(=O)Nc4ccc(-c5csnn5)cc4)C[C@@H]2N(C)CC3)cc1OC` [CBK051163T], the viability at 28.5 h, 10 µM was 95.3%.

As for `CC(C)c1nsc(NS(=O)(=O)Cc2ccccc2)n1` [CBK051188], the viability at 28.5 h, 10 µM was 112%. As for `CC(=O)Nc1nc(C)c(S(=O)(=O)Nc2nc(C(C)C)ns2)s1` [CBK051227], the viability at 28.5 h, 10 µM is 90.9%. The figure for `CC(C)(C)c1ccc(S(=O)(=O)N2CCNC(=O)C2)cc1` [CBK051238] is 88.9%; for `CCOC(=O)C1CCN(S(=O)(=O)c2ccc(C(C)(C)C)cc2)CC1` [CBK051240] it is 83.5%.

Take `CC(C)c1nsc(NS(=O)(=O)c2cc(OCC(F)(F)F)ccc2OCC(F)(F)F)n1` [CBK051262]: the viability at 28.5 h, 10 µM came to 106%. The figure for `CC(C)c1nsc(NS(=O)(=O)c2cc(C(F)(F)F)cc(C(F)(F)F)c2)n1` [CBK051263] is 84.9%. Take `COc1ccc([C@@]23CC[C@@H](NC(=O)Nc4cccc(S(=O)(=O)C(F)(F)F)c4)C[C@@H]2N(C)CC3)cc1OC` [CBK051275T]: the viability at 28.5 h, 10 µM turned out to be 99%. For the compound `O=S(=O)(c1ccc(Br)cc1F)N1CCCCC1CO` (centres unmarked) [CBK051302], the viability at 28.5 h, 10 µM came out at 92.9%. The figure for `Cc1nc(S(=O)(=O)Nc2nc(C(C)C)ns2)cn1C` [CBK051323] is 107%; for `CN(C)CC1CCCCN1S(=O)(=O)c1ccc(C(C)(C)C)cc1` (centres unmarked) [CBK051347] it is 108%; for `CC(=O)c1cnc2cc(-c3ccc(Cl)cc3)nn2c1C` [CBK051484] it is 107%. The figure for `O=C(c1nn2c(C(F)(F)F)cc(-c3ccccc3)nc2c1Cl)N1CCOCC1` [CBK051498] is 90.4%.

Turning to `COc1ccc(CCN2CCC(CNC(=O)NCc3ccccc3)CC2)cc1OC` [CBK051511T], the viability at 28.5 h, 10 µM amounted to 92.3%.

`O=S(=O)(c1ccc(OC(F)(F)F)cc1)N1CCCCC1CO` (centres unmarked) [CBK051527]: the viability at 28.5 h, 10 µM came out at 91.7%. The figure for `COc1ccc([C@@]23CC[C@@H](NC(=O)Nc4ccc(F)c(F)c4)C[C@@H]2N(C)CC3)cc1O` [CBK051630] is 88.3%; for `CS(=O)(=O)NCC1(c2ccccc2)CCN(S(=O)(=O)c2c(Cl)cccc2Cl)CC1` [CBK051633] it is 89.9%. The figure for `Cc1cc(F)c(S(N)(=O)=O)cc1NC(=O)CN1CCOCC1` [CBK051649C] is 104%. The figure for `COc1ccc([C@@]23CC[C@@H](NC(=O)Nc4ccc(F)c(C#N)c4)C[C@@H]2N(C)CC3)cc1OC` [CBK051659T] is 84%.

For `c1ccc(Cn2ccc3c(N4CCNCC4)nccc32)cc1` [CBK051672C], the viability at 28.5 h, 10 µM is 87.9%.

In the case of `COc1ccccc1-c1cc2c(=O)n(C)c(-c3ccc(CNC(C)C)cc3)cc2o1` [CBK051699C], the viability at 28.5 h, 10 µM came out at 84.5%.

With `C=CCSc1nc2ccccc2c(=O)n1CCc1ccccc1` [CBK055285], the viability at 28.5 h, 10 µM was 81.9%. The figure for `O=C(O)CCCN1C(=O)c2ccccc2C1=O` [CBK056635] is 91.7%; for `CCOC(=O)c1nc(N)oc1C` [CBK056636] it is 85.3%. The figure for `C#CCN1CC[C@]2(c3ccc(OC)c(OC)c3)CC[C@@H](NC(=O)Nc3ccc(F)c(F)c3)C[C@H]12` [CBK056657] is 104%; for `COc1ccc([C@@]23CC[C@@H](NS(=O)(=O)Cc4ccccc4)C[C@@H]2N(C)CC3)cc1OC` [CBK056665T] it is 91.4%; for `COc1ccc([C@@]23CCCN(C(=O)Nc4ccc(SC(F)(F)F)cc4)C[C@@H]2N(C)CC3)cc1OC` [CBK056681T] it is 92.2%.

As to `CC(C)(C)OC(=O)NC1CCC(NCc2ccccc2Br)CC1` (centres unmarked) [CBK056684], the viability at 28.5 h, 10 µM was found to be 91.5%. The figure for `CC(C)(C)OC(=O)NC1CCC(NCc2ccncc2)CC1` (centres unmarked) [CBK056688] is 98.8%.

On to `CC(C)(C)OC(=O)NC1CCC(NCc2cc(F)cc(F)c2)CC1` (centres unmarked) [CBK056689], for which the viability at 28.5 h, 10 µM amounted to 91.3%. The figure for `CC(C)(C)OC(=O)NC1CCC(NCc2c[nH]c(-c3ccccc3)n2)CC1` (centres unmarked) [CBK056692] is 80.9%. Take `COc1ccccc1CNCCNC(=O)OC(C)(C)C` [CBK056694]: the viability at 28.5 h, 10 µM came to 105%. The figure for `CC(C)(C)OC(=O)NCCNCc1cc(F)cc(F)c1` [CBK056698] is 90.3%. In the case of `COc1ccccc1CNCc1ccc(CNC(=O)OC(C)(C)C)cc1` [CBK056702], the viability at 28.5 h, 10 µM came out at 100%.

Take `CC(C)(C)OC(=O)NCc1ccc(CNCc2ccccc2C(F)(F)F)cc1` [CBK056703]: the viability at 28.5 h, 10 µM is 92.2%.

With `CC(C)(C)OC(=O)NCc1ccc(CNCc2cccc(Cl)c2)cc1` [CBK056704], the viability at 28.5 h, 10 µM was 108%. The figure for `CC(C)(C)OC(=O)NCc1ccc(CNCc2cc(F)cc(F)c2)cc1` [CBK056707] is 107%; for `COc1ccccc1CNCC1CCN(C(=O)OC(C)(C)C)CC1` [CBK056710] it is 96.4%. The figure for `COc1ccc(F)c(CNCC2CCN(C(=O)OC(C)(C)C)CC2)c1` [CBK056716] is 95.9%. The figure for `O=C(Nc1ccc(C(F)(F)F)cc1)N(Cc1ccc2ccccc2c1)CC1CCNCC1` [CBK056720] is 88.9%; for `Cc1noc(C)c1NC(=O)N(Cc1ccc(-c2ccccc2)cc1)CC1CCNCC1` [CBK056721] it is 100%.

On to `Cn1c(C(=O)NCCN2CCOCC2)cc2oc(-c3ccccc3)nc2c1=O` [CBK056726T], for which the viability at 28.5 h, 10 µM was 87.8%. The figure for `COc1ccc([C@@]23CC[C@@H](NS(=O)(=O)c4ccc5ccccc5c4)C[C@@H]2N(C)CC3)cc1OC` [CBK056848T] is 96.8%. The figure for `COc1ccc([C@@]23CC[C@@H](NC(=O)Nc4ccc(Cl)c(F)c4)C[C@@H]2N(C(C)C)CC3)cc1OC` [CBK056852T] is 99.2%; for `CCOc1ccc(NCc2ccccc2NS(=O)(=O)c2ccc(C)cc2)cc1` [CBK056876] it is 93.6%. The figure for `Cc1ccc(S(=O)(=O)Nc2ccccc2C(N)=O)cc1` [CBK056893] is 76%; for `O=C(NCn1nnc2ccccc21)c1ccccc1` [CBK056950] it is 93.6%; for `Cc1nc(C(F)(F)F)ccc1NC(=O)CSCC(=O)O` [CBK056975] it is 93.3%. `O=C(CCN1CCOCC1)Nc1cc(Cl)cc(Cl)c1` [CBK057021]: the viability at 28.5 h, 10 µM turned out to be 119%.

Consider `Nc1ccccc1C(=O)NCc1ccncc1` [CBK057024], for which the viability at 28.5 h, 10 µM was found to be 90.1%. The figure for `Cc1cc(NCn2nnc3ccccc32)ccc1Br` [CBK057031] is 88.2%; for `O=C(NC1CCN(Cc2c(F)cccc2Cl)CC1)c1cccs1` [CBK057035] it is 100%; for `Cc1ccc(SCC(=O)Nc2cc(C)on2)cc1` [CBK057070] it is 115%. The figure for `COC(=O)c1ccsc1NC(=O)CN1CCNCC1` [CBK057080] is 88.5%. The figure for `O=C(O)C1CCC1C(=O)N1CCN(c2nc3ccc(Cl)cc3s2)CC1` (centres unmarked) [CBK057108] is 92.4%.
